pIC50: −log10 of the molar value.
Target: TRKA (Homo sapiens (Human), UniProt P04629)
Test: Isolated TRK enzyme assay (HTRF KinEASE-TK), TRKA
Assay type: biochemical
Details: read-out: Trka enzyme (IC50)

Sequence of TRKA (P04629 441-796): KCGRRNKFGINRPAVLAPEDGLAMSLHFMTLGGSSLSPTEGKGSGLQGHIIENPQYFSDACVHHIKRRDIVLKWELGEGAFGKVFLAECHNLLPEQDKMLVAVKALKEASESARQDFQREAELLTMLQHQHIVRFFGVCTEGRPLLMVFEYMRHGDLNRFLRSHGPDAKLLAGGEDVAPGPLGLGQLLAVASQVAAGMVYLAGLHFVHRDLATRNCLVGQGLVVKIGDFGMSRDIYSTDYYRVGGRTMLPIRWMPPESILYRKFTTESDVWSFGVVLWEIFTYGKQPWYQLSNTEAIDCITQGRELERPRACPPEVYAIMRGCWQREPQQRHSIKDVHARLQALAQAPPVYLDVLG

| SMILES | pIC50 |
| --- | --- |
| Cc1nc(Cl)nn1CC(=O)Nc1cncc(C(=O)c2cn(C(C)C)c3ncncc23)c1 [Example 369, 2-(3-Chloro-5-methyl-1,2,4-triazol-1-yl)-N-[5-(7-isopropyl-7H-pyrrolo[2,3-d]pyrimidine-5-carbonyl)-pyridin-3-yl]-acetamide] | 5.52 |
| CC(C)n1cc(C(=O)c2cncc(NC(=O)Cn3ccnc3-c3ccccc3)c2)c2cncnc21 [Example 370, N-[5-(7-Isopropyl-7H-pyrrolo[2,3-d]pyrimidine-5-carbonyl)-pyridin-3-yl]-2-(2-phenyl-imidazol-1-yl)-acetamide] | 5.45 |
| CC(C)n1cc(C(=O)c2cncc(NC(=O)Cc3cn4cc(Cl)sc4n3)c2)c2cncnc21 [Example 371, 2-(2-Chloro-imidazo[2,1-b]thiazol-6-yl)-N-[5-(7-isopropyl-7H-pyrrolo[2,3-d]pyrimidine-5-carbonyl)-pyridin-3-yl]-acetamide] | 7.01 |
| CC(C)n1cc(C(=O)c2cncc(NC(=O)Cn3ccnc3)c2)c2cncnc21 [Example 372, 2-Imidazol-1-yl-N-[5-(7-isopropyl-7H-pyrrolo[2,3-d]pyrimidine-5-carbonyl)-pyridin-3-yl]-acetamide] | 5.01 |
| Cc1csc2nc(CC(=O)Nc3cncc(C(=O)c4cn(C(C)C)c5ncncc45)c3)cn12 [Example 373, N-[5-(7-Isopropyl-7H-pyrrolo[2,3-d]pyrimidine-5-carbonyl)-pyridin-3-yl]-2-(3-methyl-imidazo[2,1-b]thiazol-6-yl)-acetamide] | 6.09 |
| CC(C)n1cc(C(=O)c2cncc(NC(=O)Cc3ccn(-c4ccc(O)cc4)c3)c2)c2cncnc21 [Example 374, 2-[1-(4-Hydroxy-phenyl)-1H-pyrrol-3-yl]-N-[5-(7-isopropyl-7H-pyrrolo[2,3-d]pyrimidine-5-carbonyl)-pyridin-3-yl]-acetamide] | 6.65 |
| CC(C)n1cc(C(=O)c2cncc(NC(=O)Cc3cnc4ncnn4c3)c2)c2cncnc21 [Example 375, N-[5-(7-Isopropyl-7H-pyrrolo[2,3-d]pyrimidine-5-carbonyl)-pyridin-3-yl]-2-[1,2,4]triazolo[1,5-a]pyrimidin-6-yl-acetamide] | 5.01 |
| CC(C)n1cc(C(=O)c2cncc(NC(=O)Cc3cnccn3)c2)c2cncnc21 [Example 376, N-[5-(7-Isopropyl-7H-pyrrolo[2,3-d]pyrimidine-5-carbonyl)-pyridin-3-yl]-2-pyrazin-2-yl-acetamide] | 5.29 |
| CC(C)n1cc(C(=O)c2cncc(NC(=O)Cn3cc(-c4cccc(O)c4)nn3)c2)c2cncnc21 [Example 377, 2-[4-(3-Hydroxy-phenyl)-1,2,3-triazol-1-yl]-N-[5-(7-isopropyl-7H-pyrrolo[2,3-d]pyrimidine-5-carbonyl)-pyridin-3-yl]-acetamide] | 5.58 |
| CC(C)n1cc(C(=O)c2cncc(NC(=O)Cn3nnnc3-c3ccccc3)c2)c2cncnc21 [Example 378, N-[5-(7-Isopropyl-7H-pyrrolo[2,3-d]pyrimidine-5-carbonyl)-pyridin-3-yl]-2-(5-phenyl-tetrazol-1-yl)-acetamide] | 6.15 |
| CC(C)n1cc(C(=O)c2cncc(NC(=O)c3nn(C)c4ccccc34)c2)c2cncnc21 [Example 382, 1-Methyl-1H-indazole-3-carboxylic acid [5-(7-isopropyl-7H-pyrrolo[2,3-d]pyrimidine-5-carbonyl)-pyridin-3-yl]-amide] | 7.34 |
| CC(C)n1cc(C(=O)c2cncc(NC(=O)c3cc4ccccc4[nH]3)c2)c2cncnc21 [Example 383, 1H-Indole-2-carboxylic acid [5-(7-isopropyl-7H-pyrrolo[2,3-d]pyrimidine-5-carbonyl)-pyridin-3-yl]-amide] | 6.89 |
| Cc1nc(C(F)(F)F)c(C(=O)Nc2cncc(C(=O)c3cn(C(C)C)c4ncncc34)c2)s1 [Example 384, 2-Methyl-4-trifluoromethyl-thiazole-5-carboxylic acid [5-(7-isopropyl-7H-pyrrolo[2,3-d]pyrimidine-5-carbonyl)-pyridin-3-yl]-amide] | 5.32 |
| Cc1n[nH]c(C(F)(F)F)c1C(=O)Nc1cncc(C(=O)c2cn(C(C)C)c3ncncc23)c1 [Example 387, 3-Methyl-5-trifluoromethyl-1H-pyrazole-4-carboxylic acid [5-(7-isopropyl-7H-pyrrolo[2,3-d]pyrimidine-5-carbonyl)-pyridin-3-yl]-amide] | 5.16 |
| Cc1ccnc(C(=O)Nc2cncc(C(=O)c3cn(C(C)C)c4ncncc34)c2)c1 [Example 388, 4-Methyl-pyridine-2-carboxylic acid[5-(7-isopropyl-7H-pyrrolo[2,3-d]pyrimidine-5-carbonyl)-pyridin-3-yl]-amide] | 6.78 |
| CC(C)n1cc(C(=O)c2cncc(NC(=O)c3cc4cc[nH]c4cn3)c2)c2cncnc21 [Example 392, 1H-Pyrrolo[2,3-c]pyridine-5-carboxylic acid [5-(7-isopropyl-7H-pyrrolo[2,3-d]pyrimidine-5-carbonyl)-pyridin-3-yl]-amide] | 6.87 |
| CC(C)n1cc(C(=O)c2cncc(NC(=O)c3cnc4cn[nH]c4c3)c2)c2cncnc21 [Example 395, 1H-Pyrazolo[4,3-b]pyridine-6-carboxylic acid [5-(7-isopropyl-7H-pyrrolo[2,3-d]pyrimidine-5-carbonyl)-pyridin-3-yl]-amide] | 5.87 |
| CC(C)n1cc(C(=O)c2cncc(NC(=O)c3cnc4ccccc4c3)c2)c2cncnc21 [Example 398, Quinoline-3-carboxylic acid [5-(7-isopropyl-7H-pyrrolo[2,3-d]pyrimidine-5-carbonyl)-pyridin-3-yl]-amide] | 6.86 |

The next lines start with the values.

| pIC50 | SMILES |
| --- | --- |
| 6.37 | CC(C)n1cc(C(=O)c2cncc(NC(=O)c3nccc4occc34)c2)c2cncnc21 [Example 380, Furo[3,2-c]pyridine-4-carboxylic acid [5-(7-isopropyl-7H-pyrrolo[2,3-d]pyrimidine-5-carbonyl)-pyridin-3-yl]-amide] |
| 5.56 | Cc1nonc1C(=O)Nc1cncc(C(=O)c2cn(C(C)C)c3ncncc23)c1 [Example 381, 4-Methyl-furazan-3-carboxylic acid [5-(7-isopropyl-7H-pyrrolo[2,3-d]pyrimidine-5-carbonyl)-pyridin-3-yl]-amide] |
| 7.09 | CC(C)n1cc(C(=O)c2cncc(NC(=O)c3ncoc3C3CC3)c2)c2cncnc21 [Example 385, 5-Cyclopropyl-oxazole-4-carboxylic acid [5-(7-isopropyl-7H-pyrrolo[2,3-d]pyrimidine-5-carbonyl)-pyridin-3-yl]-amide] |
| 5.01 | CC(C)n1cc(C(=O)c2cncc(NC(=O)c3cccnn3)c2)c2cncnc21 [Example 386, Pyridazine-3-carboxylic acid [5-(7-isopropyl-7H-pyrrolo[2,3-d]pyrimidine-5-carbonyl)-pyridin-3-yl]-amide] |
| 7.07 | CC(C)n1cc(C(=O)c2cncc(NC(=O)c3c[nH]nc3C3CCC3)c2)c2cncnc21 [Example 389, 3-Cyclobutyl-1H-pyrazole-4-carboxylic acid [5-(7-isopropyl-7H-pyrrolo[2,3-d]pyrimidine-5-carbonyl)-pyridin-3-yl]-amide] |
| 5.01 | CC(C)n1cc(C(=O)c2cncc(NC(=O)c3cnco3)c2)c2cncnc21 [Example 390, Oxazole-5-carboxylic acid [5-(7-isopropyl-7H-pyrrolo[2,3-d]pyrimidine-5-carbonyl)-pyridin-3-yl]-amide] |
| 6.61 | Cc1c[nH]c(C(=O)Nc2cncc(C(=O)c3cn(C(C)C)c4ncncc34)c2)n1 [Example 391, 4-Methyl-1H-imidazole-2-carboxylic acid [5-(7-isopropyl-7H-pyrrolo[2,3-d]pyrimidine-5-carbonyl)-pyridin-3-yl]-amide] |
| 5.87 | Cc1cnc(C(=O)Nc2cncc(C(=O)c3cn(C(C)C)c4ncncc34)c2)cn1 [Example 393, 5-Methyl-pyrazine-2-carboxylic acid[5-(7-isopropyl-7H-pyrrolo[2,3-d]pyrimidine-5-carbonyl)-pyridin-3-yl]-amide] |
| 5.15 | Cc1nn(C)cc1C(=O)Nc1cncc(C(=O)c2cn(C(C)C)c3ncncc23)c1 [Example 394, 1,3-Dimethyl-1H-pyrazole-4-carboxylic acid [5-(7-isopropyl-7H-pyrrolo[2,3-d]pyrimidine-5-carbonyl)-pyridin-3-yl]-amide] |
| 6.75 | CCc1cc(C(=O)Nc2cncc(C(=O)c3cn(C(C)C)c4ncncc34)c2)no1 [Example 396, 5-Ethyl-isoxazole-3-carboxylic acid[5-(7-isopropyl-7H-pyrrolo[2,3-d]pyrimidine-5-carbonyl)-pyridin-3-yl]-amide] |
| 5.01 | CC(C)n1cc(C(=O)c2cncc(NC(=O)c3ccnn3C)c2)c2cncnc21 [Example 397, 2-Methyl-2H-pyrazole-3-carboxylic acid [5-(7-isopropyl-7H-pyrrolo[2,3-d]pyrimidine-5-carbonyl)-pyridin-3-yl]-amide] |
| 6.82 | CC(C)n1cc(C(=O)c2cncc(NC(=O)c3cc4cc(F)cnc4[nH]3)c2)c2cncnc21 [Example 399, 5-Fluoro-1H-pyrrolo[2,3-b]pyridine-2-carboxylic acid [5-(7-isopropyl-7H-pyrrolo[2,3-d]pyrimidine-5-carbonyl)-pyridin-3-yl]-amide] |
| 6.23 | Cc1cc(C(=O)Nc2cncc(C(=O)c3cn(C(C)C)c4ncncc34)c2)nn1C [Example 400, 1,5-Dimethyl-1H-pyrazole-3-carboxylic acid [5-(7-isopropyl-7H-pyrrolo[2,3-d]pyrimidine-5-carbonyl)-pyridin-3-yl]-amide] |
| 6.88 | CC(C)n1cc(C(=O)c2cncc(NC(=O)c3coc(C4CC4)n3)c2)c2cncnc21 [Example 401, 2-Cyclopropyl-oxazole-4-carboxylic acid [5-(7-isopropyl-7H-pyrrolo[2,3-d]pyrimidine-5-carbonyl)-pyridin-3-yl]-amide] |
| 5.01 | CC(C)n1cc(C(=O)c2cncc(NC(=O)c3scnc3C(F)(F)F)c2)c2cncnc21 [Example 402, 4-Trifluoromethyl-thiazole-5-carboxylic acid [5-(7-isopropyl-7H-pyrrolo[2,3-d]pyrimidine-5-carbonyl)-pyridin-3-yl]-amide] |
